{
  "source": "patent US20220211795A1",
  "about": "(Chenland Nutritionals Inc., priority 2021, published 2022)",
  "key": {"glioma GL261 cells": {"system": "glioma GL261 cells", "assay": "Cytotoxicity experiment (CCK8)", "format": "cell-based", "conditions": "1.172-150 μg/mL, 4 h drug then 20 h culture", "method": "Gl261 cells in logarithmic growth phase are uniformly inoculated into sterile 96-well plates with 2×10^3 cells per well, and no cells are seeded around the plates, then 100 μL […] is added into each well and cultured under the condition of 37° C. and 5% CO2 for 24 h; remove the culture medium and add 100 μL of drug-containing medium (concentration gradient set at […], 75.000 μg/mL, 37.500 μg/mL, 18.750 μg/mL, 9.375 μg/mL, 4.688 μg/mL, 2.344 μg/mL, and 1.172 μg/mL), the drug-containing medium is removed after culture for 4 h, and 100 μL of medium is added to each well for further culture for 20 h. The culture medium is removed, and culture medium containing 10% CCK8 is added. After incubation for 1 h, the absorbance is measured with a microplate reader, and the cell viability is determined by the following formula […]."}, "Particle size detection": {"assay": "Particle size detection", "format": "physicochemical", "excerpt": "1.2 Particle Size Detection"}, "[1]": {"assay": "Potential detection (zeta potential)", "format": "physicochemical"}},
  "data": [
    {"smiles": "COc1cc(/C=C/C(=O)CC(=O)/C=C/c2ccc(O)c(OC)c2)ccc1O", "note": "[Free Curcumin, Curcumin]", "values": [
      {"measurement": "toxicity to GL261 cells", "setting": "glioma GL261 cells", "result": "no obvious toxicity"},
      {"measurement": "PDI", "setting": "Particle size detection", "result": 0.545},
      {"measurement": "Hydrodynamic diameter", "setting": "Particle size detection; 0.0309 g curcumin+10 ml water suspension", "result": 4.053, "unit": "μm"},
      {"measurement": "Average zeta potential", "setting": "[1]", "result": "−36.5", "unit": "mv"}
    ]}
  ]
}
